What was measured:
[1] = tested on: FXa/ATIII inhibited by fondaparinux; assay: In vitro FXa/ATIII enzymatic assay of anti-fondaparinux activity; type: biochemical, human; settings: for Restoration of FXa protease activity (hydrolysis rate of the peptide substrate): 15 μM fond + 9 or 15 μM antidote, HPLC
Protocol: The activity of two spermine derivatives, 3AC and 3FF, as fond antidotes was evaluated with an in vitro enzymatic assay related to blood coagulation, as previously described (Figure A). , In brief, fond promotes a conformational change in ATIII toward an efficient inhibitor of FXa. Addition of a ligand of fond hinders the inhibitory action of ATIII restoring the FXa hydrolytic activity, which has been used as an indirect measurement of antifond behavior.
Recombinant antithrombin III and coagulation factor Xa were obtained from two different kits, Berichrom Heparin test (SIEMENS) and Kinetichrome Anti-Xa Heparin kit (Iduron). Methods for both kits are similar, but not identical. Differences will be spotted by method A (SIEMENS) and method B (Iduron). Following the manufacturer’s instructions, stock solutions were prepared as follows: human antithrombin III (1 IU/mL) and factor Xa reagent (0.4 μg/mL, human plasma fraction with additives Tris, sodium chloride, and EDTA). Chromogenic substrate specific for factor Xa was dissolved at 4 mM concentration (A: Z-D-Leu-Gly-Arg-ANBA-methyl amide, and B: Z-D-Arg-Gly-Arg-pNA). Additionally, either 4-nitroaniline (A) or N-Boc-4-nitroaniline (B) was added to the substrate solution at a concentration of 1.6 mM and used as an internal standard to quantify the hydrolysis of the chromogenic substrate. All compounds were dissolved in Milli-Q water at the desired stock concentrations prior to start of the assays and kept at 4 °C. Various concentrations of the ligand, fondaparinux (up to 15 μM) or LMWH (0.1 to 10 μM), human antithrombin III solution (2 μL), and factor Xa reagent solution (35 μL) were consecutively added to an Eppendorf vial and brought to a total volume of 145 μL. Then, 20 μL of reagent substrate solution was added to start the experiment, and the mixture was vigorously shaken at 25 °C. 20 μL aliquots were taken at 5/10/15/20/30/50/80/120 minutes, diluted with 40 μL of acetic acid (20% v/v), and injected into the analytical HPLC system. The gradient ranged from 5% of ACN (0.1% formic acid) in water (0.1% formic acid) to 100% of ACN in 24 min using a 15 × 4.6 mm KROMAPHASE C18 5.0 μm column. In A: the retention time of cleaved chromophore was 9.1 min, retention time of chromogenic substrate was 13.9 min, and retention time of 4-nitroaniline was 15.4 min. In B: the retention time of chromogenic substrate was 11.0 min, retention time of cleaved chromophore was 15.2 min, and retention time of N-Boc-4-nitroaniline was 21.7 min. FXa/ATIII activity was represented as the percent of hydrolysis, which was calculated from the normalized area of the cleaved peptide at 405 nm at each corresponding time point. The experiment carried out in the absence of heparinoid was considered as the maximum of activity, while the experiment with heparinoid and no ligand was considered as negative control (maximum inhibition of FXa by heparinoid). The concentration of heparinoid was selected for the measurement to render significant inhibition within experimental time while allowing the reaction to proceed.

[2] = tested on: FXa/ATIII inhibited by LMWH; assay: In vitro FXa/ATIII enzymatic assay with LMWH; type: biochemical, human; settings: [LMWH] = [antidote] = 0.1 or 10 μM, Figure S3
Protocol: Recombinant antithrombin III and coagulation factor Xa were obtained from two different kits, Berichrom Heparin test (SIEMENS) and Kinetichrome Anti-Xa Heparin kit (Iduron). Methods for both kits are similar, but not identical. Differences will be spotted by method A (SIEMENS) and method B (Iduron). Following the manufacturer’s instructions, stock solutions were prepared as follows: human antithrombin III (1 IU/mL) and factor Xa reagent (0.4 μg/mL, human plasma fraction with additives Tris, sodium chloride, and EDTA). Chromogenic substrate specific for factor Xa was dissolved at 4 mM concentration (A: Z-D-Leu-Gly-Arg-ANBA-methyl amide, and B: Z-D-Arg-Gly-Arg-pNA). Additionally, either 4-nitroaniline (A) or N-Boc-4-nitroaniline (B) was added to the substrate solution at a concentration of 1.6 mM and used as an internal standard to quantify the hydrolysis of the chromogenic substrate. All compounds were dissolved in Milli-Q water at the desired stock concentrations prior to start of the assays and kept at 4 °C. […] FXa/ATIII activity was represented as the percent of hydrolysis, which was calculated from the normalized area of the cleaved peptide at 405 nm at each corresponding time point. […]

fibroblasts = assay: Resazurin cell viability assay; type: cell-based; settings: for Cell viability (toxicity): concentrations <100 μM, resazurin
Protocol: (§1) A549 and HeLa cells were maintained in DMEM ([…] glucose, Sigma) containing 10% fetal calf serum (FCS), 2 mM glutamine, 50 U/mL penicillin, and […] streptomycin at 37 °C under a 5% CO2 atmosphere. HMEC-1 and fibroblast cells were maintained in MCDB 131 medium (GIBCO) containing 10% fetal calf serum (FCS), 2 mM glutamine, 50 U/mL penicillin, and […] streptomycin at 37 °C under a 5% CO2 atmosphere.
(§2) The viability of HMEC-1 and fibroblast cells was tested using the resazurin assay. In it, exponentially growing cells were detached from the culture flasks using a trypsin–0.25% EDTA solution, and the cell suspension was seeded onto a 96-well plate (Nunclon) at a concentration of 9k cells/well. Toxicity of 3AC and 3FF was tested as follows: 72 h after seeding, culture medium was discarded and replaced by compound solution in PBS that was diluted with cell culture medium to the final concentration: [3××] = 10 to 100 μM. Resazurin (0.1 mg/mL) was added. After 2 h of incubation, fluorescence was measured (λex = 560 nm // λem = 590 nm) using a spectrophotometric BioTek Synergy 2 Microplate Reader (Agilent). Cell viability is expressed as an emission percent ratio of cells treated with the compound to untreated cells, which were used as a control. The results are the average from three independent experiments. In experiments with fondaparinux, the cells were incubated for 2 h with [fondaparinux] = 100 μM and [3××] = 50/100/200 μM following the same procedure for the rest of the protocol.

HMEC-1 cells = assay: Resazurin cell viability assay; type: cell-based; settings: for Cell viability (toxicity): HMEC-1, concentrations <100 μM, resazurin
Protocol: as §1, §2

Hemolysis assay = type: cell-based; settings: freshly isolated mouse erythrocytes, roughly 4-5% suspension, 37 °C
Protocol: Mouse blood (4 mL) was collected in a sodium citrate tube and immediately centrifuged at 1700g for 5 min. The supernatant was removed, and the erythrocytes were washed by adding 2 mL of PBS. It was centrifuged again at 1700g for 5 min. The washing step was repeated twice more. The supernatant was finally removed, and the erythrocytes were diluted in PBS until obtaining a roughly 4–5% suspension. 50 μL of erythrocyte solution was mixed with 50 μL of test compound (3×× at the desired concentration). As a negative control, 50 μL of PBS was used, while 10% Triton X-100 was used as a positive control. The samples were incubated at 37 °C for 60 min. After that, they were centrifuged (1700g for 5 min), and the supernatant was transferred to a 96-well plate. Absorbance was measured at 405 nm. The experiment contained three technical replicates. The results are the average from three independent experiments.

[3] = [fond] = [antidote] = 15 μM, three reaction times

| SMILES | Restoration of FXa protease activity (hydrolysis rate of the peptide substrate) [1] | Percent recovery of peptide substrate hydrolysis ([1]; [fond] = 15 μM, lower antidote concentration (9 μM), Figure S2) | Percent recovery of peptide substrate hydrolysis [1, 3] | Percent recovery of peptide substrate hydrolysis vs LMWH [2] | Cell toxicity in the presence of fondaparinux (fibroblasts; 100 μM fondaparinux, 50/100/200 μM compound) | Cell viability (toxicity) (fibroblasts) | Cell toxicity in the presence of fondaparinux (HMEC-1 cells; HMEC-1, 100 μM fondaparinux, 50/100/200 μM compound) | Cell viability (toxicity) (HMEC-1 cells) | hemolysis at 60 min (Hemolysis assay) [%] |
| --- | --- | --- | --- | --- | --- | --- | --- | --- | --- |
| Oc1ccccc1CNCCCNCCCCNCCCNCc1ccc2c(c1)Cc1ccccc1-2 [Compound 3AC] | restore the FXa protease activity in a dose–response manner | higher potency | almost complete fast recovery up to the control values | more active than prot and similar to cir | reduced | low to acceptable cell toxicity | reduced | low to acceptable cell toxicity | < 2 |
| Oc1ccc2ccccc2c1CNCCCNCCCCNCCCNCc1c(O)ccc2ccccc12 [Compound 3FF] | restore the FXa protease activity in a dose–response manner |  | almost complete fast recovery up to the control values | more active than prot and similar to cir |  | low to acceptable cell toxicity |  | low to acceptable cell toxicity | < 2 |

Source: publication PMC12070314, “Efficient Small-Molecule Reversal Agents for Anticoagulant Fondaparinux” (ACS Pharmacology & Translational Science, 2025)
